The assay relates to tobacco mosaic virus (TMV). Description: Induction of resistance to tobacco mosaic virus in tobacco. The assay is classed as in vivo. As to conditions: for Effectiveness Covered (%) (decline in TMV lesions vs UTC, systemic response) / Effectiveness Uncovered (%) (decline in TMV lesions vs UTC, local response): TMV 3 days post-treatment, scored 3 days after inoculation; for TMV response / effectiveness against TMV infection (summary of Table 22): foliar spray.

Marks after values point to notes of the source that are not given here.

Take SQGISEKQLDQLLSQLFQALLQP (P4-14S-17F): under “spray 10 ug/ml”, the “Effectiveness Covered (%) (decline in TMV lesions vs UTC, systemic response)” value (shortened to “Effectiveness Covered (%)”) is 57% and the “Effectiveness Uncovered (%) (decline in TMV lesions vs UTC, local response)” value (“Effectiveness Uncovered (%)” for short) amounted to 94%.

Take SQGISEKQLDQLLSQLIQALDQP (P4-14S-21D): where the note is “spray 10 ug/ml”, the “Effectiveness Covered (%)” value came to 48% and the “Effectiveness Uncovered (%)” value is recorded as 49%.

For the substance SEEEELDQLLTQLI (P1-31), the “TMV response / effectiveness against TMV infection (summary of Table 22)” value (“TMV response / effectiveness” below) was “anti-TMV activity”. For the setting “spray 20 ug/ml”, the “Effectiveness Covered (%)” value was 88* % and the “Effectiveness Uncovered (%)” value is on record as 95* %.

Take SQGISEKQLDQLLSQLIQAVLQP (P4-14S-20V): the “TMV response / effectiveness” value is reported as “weaker TMV responses”. Besides, where the note is “spray 10 ug/ml”, the “Effectiveness Covered (%)” value is −29% and the “Effectiveness Uncovered (%)” value is on record as −26%.

On to “SQGISEKQLDQLLSQLI_ALLQP (SQGISEKQLDQLLSQLIALLQP; P4-d18)”, for which, where the note is “spray 10 ug/ml”, the “Effectiveness Covered (%)” value was 15% and the “Effectiveness Uncovered (%)” value was found to be 65%.

Consider QQPIDRQTIEQMAQLLAQLL (P18-8), for which, where the note is “spray 20 ug/ml”, the “Effectiveness Covered (%)” value was 78* % and the “Effectiveness Uncovered (%)” value amounted to 55%.

For the substance “QAGPQSANKTGNVDDANNQDPMQALMQLLEDL (P14-dc1)”, where the note is “spray 10 ug/ml”, the “Effectiveness Covered (%)” value is 46% and the “Effectiveness Uncovered (%)” value is 65* %.

On to SQGISEKQLDQLLASQLIQALLQP (P4-i14A), for which, under “spray 10 ug/ml”, the “Effectiveness Covered (%)” value came to 77% and the “Effectiveness Uncovered (%)” value came out at 75%.

For “SEEEEELQKLLK_ILEALV (SEEEEELQKLLKILEALV; P25-9)”, for the setting “spray 20 ug/ml”, the “Effectiveness Covered (%)” value was 87* % and the “Effectiveness Uncovered (%)” value came out at 68%.

For SEEEEELKASLKLIARLL (P19min-10S), for the setting “spray 20 ug/ml”, the “Effectiveness Covered (%)” value is given as 94* % and the “Effectiveness Uncovered (%)” value is listed as 81* %.

Regarding “SQGISEKQL_QLL_QLI_ALLQP (SQGISEKQLQLLQLIALLQP; P4-d10,14,18)”, the “TMV response / effectiveness” value is recorded as “moderate reduction in effectiveness against TMV infection”. Moreover, for the setting “spray 10 ug/ml”, the “Effectiveness Covered (%)” value came to 37% and the “Effectiveness Uncovered (%)” value was found to be 55%.

Consider QDPMQALMQDLEDLVKLLK (P14d-10D), for which, for the setting “spray 20 ug/ml”, the “Effectiveness Covered (%)” value was 84* % and the “Effectiveness Uncovered (%)” value is 84* %.

On to “QAGPQSANKTGNVDDANNQDPAQALLQLLEDLV (P14-22A,26L)”, for which, under “spray 20 ug/ml”, the “Effectiveness Covered (%)” value is 62% and the “Effectiveness Uncovered (%)” value amounted to 48%.

PSPFTQMLMHIVGEDLQAQN (P6a-15D): where the note is “spray 20 ug/ml”, the “Effectiveness Covered (%)” value is given as 74* % and the “Effectiveness Uncovered (%)” value is reported as 74* %.

Take SQGISEKQLDQLLSQAIQALLQP (P4-14S-16A): the “TMV response / effectiveness” value is given as “weaker TMV responses”. Where the note is “spray 10 ug/ml”, the “Effectiveness Covered (%)” value turned out to be 3% and the “Effectiveness Uncovered (%)” value is recorded as 1%.

As to SEEEEELKALSKLIARLL (P19min-11S), for the setting “spray 20 ug/ml”, the “Effectiveness Covered (%)” value is reported as 45% and the “Effectiveness Uncovered (%)” value is on record as 71* %.

Consider “SEEEEELTGVLQKLLK_ILE (SEEEEELTGVLQKLLKILE; P25-12)”, for which, under “spray 20 ug/ml”, the “Effectiveness Covered (%)” value was found to be 58% and the “Effectiveness Uncovered (%)” value was 77* %.

Regarding “QAGPQSANKTGNVDDANNQDPLQALAQLLEDLV (P14-22L,26A)”, for the setting “spray 20 ug/ml”, the “Effectiveness Covered (%)” value was 83* % and the “Effectiveness Uncovered (%)” value was 72* %.

In the case of QDPMQALMQLLEDLVKLDK (P14d-18D), the “TMV response / effectiveness” value is “weaker TMV responses”. Under “spray 20 ug/ml”, the “Effectiveness Covered (%)” value is on record as 32% and the “Effectiveness Uncovered (%)” value is 52%.

For SEEEEELAQLSAQLLKSLL (P18min-11S), the “TMV response / effectiveness” value is “weaker TMV responses”. Moreover, under “spray 20 ug/ml”, the “Effectiveness Covered (%)” value is given as −274% and the “Effectiveness Uncovered (%)” value is reported as −90%.

Take KPNDSQSNIAKLISALIMSLSQ (P15b-21S): under “spray 20 ug/ml”, the “Effectiveness Covered (%)” value is listed as 97* % and the “Effectiveness Uncovered (%)” value is 100* %.

Take QDPAQALEQLLEDLVKSLK (p14f-17S): for the setting “spray 20 ug/ml”, the “Effectiveness Covered (%)” value is listed as 84* % and the “Effectiveness Uncovered (%)” value was 94* %.

Turning to SEEEEELEQLLEDLV (P14-39), where the note is “spray 20 ug/ml”, the “Effectiveness Covered (%)” value is listed as 66* % and the “Effectiveness Uncovered (%)” value is reported as 72* %.

As for SEEEEELTLTGVLQKLLKIL (P25-14), the “TMV response / effectiveness” value is “weaker control of TMV infection”. For the setting “spray 20 ug/ml”, the “Effectiveness Covered (%)” value was −87% and the “Effectiveness Uncovered (%)” value is 52%.

On to QDPMQASMQLLEDLVKLLK (P14d-7S), for which, under “covered leaf”, the “efficacy on covered leaves, systemic immune response” value was “reduced efficacy on covered leaves”. Also, under “spray 20 ug/ml”, the “Effectiveness Covered (%)” value was 23% and the “Effectiveness Uncovered (%)” value is on record as −112%.

For the substance SQGISEKQLDQLLSQL (P4-116), the “TMV response / effectiveness” value is recorded as “reduced effectiveness against TMV infection”. Further, under “spray 10 ug/ml”, the “Effectiveness Covered (%)” value is 0* % and the “Effectiveness Uncovered (%)” value worked out at 52%.

On to SEEEELDQLLSQLI (P4-115), for which, under “spray 20 ug/ml”, the “Effectiveness Covered (%)” value is reported as 87* % and the “Effectiveness Uncovered (%)” value is recorded as 87* %.

For the substance SQGISEKQLADQLLSQLIQALLQP (P4-i10A), where the note is “spray 10 ug/ml”, the “Effectiveness Covered (%)” value came to 81% and the “Effectiveness Uncovered (%)” value is on record as 92%.

As to QDPMQALMQLDEDLVKLLK (P14d-11D), under “spray 20 ug/ml”, the “Effectiveness Covered (%)” value was 87* % and the “Effectiveness Uncovered (%)” value is listed as 81* %.

As to QDPMQALMQLLEDDVKLLK [P14d-14D], under “spray 20 ug/ml”, the “Effectiveness Covered (%)” value was 35% and the “Effectiveness Uncovered (%)” value is 84* %.

As to “QAGPQSANKTGNVDDANNQDPLQALLQLAEDAV (p14-22L,29,32A) [P14-22L,28,32A]”, under “spray 10 ug/ml”, the “Effectiveness Covered (%)” value is on record as 37* % and the “Effectiveness Uncovered (%)” value is on record as 71* %.

Turning to “QAGPQSANKTGNVDDANNQDPMQALMQLLED (P14-dc2)”, where the note is “spray 10 ug/ml”, the “Effectiveness Covered (%)” value came out at 56% and the “Effectiveness Uncovered (%)” value was 76* %.

Regarding SEEEEEEEIAKLISALIESLL (P15-60), for the setting “spray 20 ug/ml”, the “Effectiveness Covered (%)” value came to 13% and the “Effectiveness Uncovered (%)” value is given as 55%.

“QAGPQSANKTGNVDDANNQDPEQALLQLLEDLV (P14-22E,26L)”: for the setting “spray 20 ug/ml”, the “Effectiveness Covered (%)” value is reported as 84* % and the “Effectiveness Uncovered (%)” value is on record as 61* %.

Regarding “QAGPQSANKTGNVDDANNQDPE_ALAQLLEDLV (QAGPQSANKTGNVDDANNQDPEALAQLLEDLV; P14-22E,26A)”, for the setting “spray 20 ug/ml”, the “Effectiveness Covered (%)” value was 88* % and the “Effectiveness Uncovered (%)” value is given as 89* %.

“QAGPQSANKTGNVDDANNQDPLQAAAQLLEDLV (P14-22L,25-26A)”: for the setting “spray 10 ug/ml”, the “Effectiveness Covered (%)” value is 75* % and the “Effectiveness Uncovered (%)” value is 87* %.

For the substance QDPMQADMQLLEDLVKLLK (P14d-7D), under “spray 20 ug/ml”, the “Effectiveness Covered (%)” value was 55* % and the “Effectiveness Uncovered (%)” value is reported as 71* %.

Consider QDPMQALMQLLEDLDKLLK (P14d-15D), for which, for the setting “spray 20 ug/ml”, the “Effectiveness Covered (%)” value was 74* % and the “Effectiveness Uncovered (%)” value was 87* %.

As to SQGISEKQLDQLLSQVIQALLQP (P4-14S-16V), the “TMV response / effectiveness” value is “produced the best results”. Moreover, under “spray 10 ug/ml”, the “Effectiveness Covered (%)” value is reported as 85* % and the “Effectiveness Uncovered (%)” value worked out at 78%.

As for SQGISEKQLDQLLSQLI (P4-111), under “spray 10 ug/ml”, the “Effectiveness Covered (%)” value stood at 65% and the “Effectiveness Uncovered (%)” value came out at 58%.

Consider “QAGPQSANKTGNVDDANNQDPLQALAQLAEDLV (P14-22L,26,29A)”, for which, where the note is “spray 10 ug/ml”, the “Effectiveness Covered (%)” value is given as 70* % and the “Effectiveness Uncovered (%)” value is reported as 85* %.

SEEEEEALEQLLEDLVKLL (P14-31): where the note is “spray 20 ug/ml”, the “Effectiveness Covered (%)” value is 87* % and the “Effectiveness Uncovered (%)” value was 85* %.

Turning to KPNDSQSNIAKSISALIMSLLQ (P15b-12S), where the note is “spray 20 ug/ml”, the “Effectiveness Covered (%)” value worked out at 47% and the “Effectiveness Uncovered (%)” value is listed as 76* %.

For the substance “SQGISEKQLADQLLASQLIAQALLQP (P4-i10A,14A,18A)”, where the note is “spray 10 ug/ml”, the “Effectiveness Covered (%)” value is reported as 69% and the “Effectiveness Uncovered (%)” value amounted to 75%.

Turning to “SEEEEEEEIAKLIS_LIESLL (SEEEEEEEIAKLISLIESLL; P15-61)”, under “spray 20 ug/ml”, the “Effectiveness Covered (%)” value is reported as 7% and the “Effectiveness Uncovered (%)” value is on record as 55* %.

Take SQGISEKQLDQLLSQLIAQALLQP (P4-i18A): under “spray 10 ug/ml”, the “Effectiveness Covered (%)” value was 50% and the “Effectiveness Uncovered (%)” value is reported as 81%.

As to SEEEEELAQLLAQLL (P18-9), for the setting “spray 20 ug/ml”, the “Effectiveness Covered (%)” value is 52% and the “Effectiveness Uncovered (%)” value was 65* %.
